Measured values published in PMC5490406, “Syntheses of Radioiodinated Pyrimidine-2,4,6-Triones as Potential Agents for Non-Invasive Imaging of Matrix Metalloproteinases” (Pharmaceuticals, 2017).

Columns and labels:
human active MMP-2 = target: T1, human active MMP-2 (Homo sapiens, UniProt P08253); assay: fluorometric in vitro MMP inhibition assay, MMP-2; type: biochemical
T1 sequence (P08253 110-660): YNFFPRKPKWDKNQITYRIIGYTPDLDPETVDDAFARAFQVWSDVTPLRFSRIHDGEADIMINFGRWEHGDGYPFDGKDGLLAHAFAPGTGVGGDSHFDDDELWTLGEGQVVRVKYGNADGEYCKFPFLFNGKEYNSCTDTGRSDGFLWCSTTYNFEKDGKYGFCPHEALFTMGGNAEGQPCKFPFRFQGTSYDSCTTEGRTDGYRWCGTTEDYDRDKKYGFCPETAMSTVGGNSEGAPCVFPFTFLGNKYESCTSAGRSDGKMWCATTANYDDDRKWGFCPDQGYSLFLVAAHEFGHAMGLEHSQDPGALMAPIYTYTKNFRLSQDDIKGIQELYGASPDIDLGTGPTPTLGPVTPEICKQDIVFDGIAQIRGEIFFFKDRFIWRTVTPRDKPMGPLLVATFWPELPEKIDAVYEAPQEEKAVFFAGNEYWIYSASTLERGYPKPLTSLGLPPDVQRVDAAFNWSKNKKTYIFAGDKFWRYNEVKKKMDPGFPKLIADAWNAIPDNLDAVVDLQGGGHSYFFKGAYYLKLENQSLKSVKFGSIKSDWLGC
Experimental: (§1) The MMP inhibition potencies of the barbituric acid derivatives 5a, 5b, 6, 9 and 10 were measured in fluorometric in vitro inhibition assays as described previously.
(§2) An aliquot of substrate (10 μL of a 50 μM solution) was then added to 90 μL of the preincubated MMP/inhibitor mixture, and the fluorescence was determined at 37 °C by following product release with time. The fluorescence changes were monitored using a Fusion Universal Microplate Analyzer (Packard Bioscience, Boston, MA, USA) with excitation and emission wavelengths set to 330 and 390 nm, respectively. Reaction rates were measured from the initial 10 min of the reaction profile where product release was linear with time and plotted as a function of inhibitor dose. From the resulting inhibition curves, the IC50 values for each inhibitor were calculated by non-linear regression analysis, performed using the Grace 5.1.8 software (Linux).

human active MMP-9 = human active MMP-9 (Homo sapiens, UniProt P14780); assay: fluorometric in vitro MMP inhibition assay, MMP-9; type: biochemical
Chain of human active MMP-9 (P14780 107-707 limits assumed): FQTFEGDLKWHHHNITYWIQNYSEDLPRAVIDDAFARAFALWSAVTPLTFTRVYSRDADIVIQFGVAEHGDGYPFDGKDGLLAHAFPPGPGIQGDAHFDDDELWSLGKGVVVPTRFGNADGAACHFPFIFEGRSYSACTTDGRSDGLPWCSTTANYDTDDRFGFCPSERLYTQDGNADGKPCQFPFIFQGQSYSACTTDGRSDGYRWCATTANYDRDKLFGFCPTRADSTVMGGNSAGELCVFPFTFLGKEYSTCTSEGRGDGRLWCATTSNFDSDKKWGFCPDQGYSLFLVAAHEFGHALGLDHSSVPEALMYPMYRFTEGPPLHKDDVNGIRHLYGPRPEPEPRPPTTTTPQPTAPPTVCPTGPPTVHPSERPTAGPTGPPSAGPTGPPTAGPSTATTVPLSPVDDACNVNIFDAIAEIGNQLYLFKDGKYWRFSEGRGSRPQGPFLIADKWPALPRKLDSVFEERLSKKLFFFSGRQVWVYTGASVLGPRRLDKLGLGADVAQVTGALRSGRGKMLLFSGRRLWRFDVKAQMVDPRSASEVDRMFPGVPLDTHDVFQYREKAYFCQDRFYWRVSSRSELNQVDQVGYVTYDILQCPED
Experimental: as §1, §2

human active MMP-8 = human active MMP-8 (Homo sapiens, UniProt P22894); assay: fluorometric in vitro MMP inhibition assay, MMP-8; type: biochemical
Chain of human active MMP-8 (P22894 101-467): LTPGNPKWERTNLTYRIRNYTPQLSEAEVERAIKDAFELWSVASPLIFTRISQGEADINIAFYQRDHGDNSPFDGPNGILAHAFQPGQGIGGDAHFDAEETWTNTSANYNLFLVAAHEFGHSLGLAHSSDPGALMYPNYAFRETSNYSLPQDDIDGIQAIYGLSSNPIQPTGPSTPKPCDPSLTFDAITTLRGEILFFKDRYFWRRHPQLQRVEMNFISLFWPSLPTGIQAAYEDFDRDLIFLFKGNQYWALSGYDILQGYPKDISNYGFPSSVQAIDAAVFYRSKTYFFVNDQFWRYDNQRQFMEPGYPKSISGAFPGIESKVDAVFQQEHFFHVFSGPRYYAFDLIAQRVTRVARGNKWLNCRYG
Experimental: as §1, §2

human active MMP-13 = human active MMP-13 (Homo sapiens, UniProt P45452); assay: fluorometric in vitro MMP inhibition assay, MMP-13; type: biochemical
Experimental: as §1, §2

human active MMP-14 = human active MMP-14 (Homo sapiens, UniProt P50281); assay: fluorometric in vitro MMP inhibition assay, MMP-14; type: biochemical
Experimental: as §1, §2

[1] = calculated logP/logD (ACD/Chemsketch ACD/Labs 6.00); conditions: relative to 12
[2] = IC50 MMP-2 (range given jointly for MMP-2 and -9), summary of Table 1
[3] = IC50 MMP-2, mean ± SD of three assays
[4] = IC50 MMP-9 (range given jointly for MMP-2 and -9), summary of Table 1
[5] = IC50 MMP-9, mean ± SD of three assays

| SMILES | IC50 (human active MMP-2; [2]) [nM] | IC50 (human active MMP-2; [3]) [nM] | IC50 (human active MMP-9; [4]) [nM] | IC50 (human active MMP-9; [5]) [nM] | melting point | IC50 (human active MMP-8) [nM] | IC50 (human active MMP-13) [nM] | IC50 (human active MMP-14) [nM] | increased water solubility compared to 12, inferred from clogD shift [1] |
| --- | --- | --- | --- | --- | --- | --- | --- | --- | --- |
| O=C(O)CCN1CCN(C2(c3ccc(I)cc3)C(=O)NC(=O)NC2=O)CC1 [5b, 5-[4-(2-Carboxyethyl)piperazin-1-yl]-5-(4-iodophenyl)pyrimidine-2,4,6-trione] | 670 to 1600 | 1200 ± 340 | 670 to 1600 | 1600 ± 600 | 139 to 142 °C |  |  |  |  |
| O=C1NC(=O)C(c2ccc(I)cc2)(N2CCN(CCO)CC2)C(=O)N1 [5a, 5-[4-(2-Hydroxyethyl)piperazin-1-yl]-5-(4-iodophenyl)pryrimidine-2,4,6-trione] |  | 10 ± 3 |  | 550 ± 180 | 168 to 172 °C |  |  |  |  |
| O=C1NC(=O)C(c2ccc(O)c(I)c2)(N2CCN(CCO)CC2)C(=O)N1 [compound 6, 5-(4-Hydroxy-3-iodophenyl)-5-[4-(2-hydroxyethyl)piperazin-1-yl]pryrimidine-2,4,6-trione] | 670 to 1600 | 670 ± 210 | 670 to 1600 | 1300 ± 320 | 168 to 170 °C (dec.) |  |  |  |  |
| O=C1NC(=O)C(c2ccc(Oc3ccc(I)cc3)cc2)(N2CCN(CCOCCOCCOCCF)CC2)C(=O)N1 [compound 10, 5-(4-(2-(2-(2-(2-Fluoroethoxy)ethoxy)ethoxy)ethyl)piperazin-1-yl)-5-(4-(4-iodophenoxy)phenyl)-pyrimidine-2,4,6-trione] |  | 23 ± 5 |  | 17 ± 5 | 176 to 177 °C | 146 ± 48 | 28 ± 11 |  |  |
| O=C(O)CCN1CCN(C2(c3ccc(Oc4ccc(I)cc4)cc3)C(=O)NC(=O)NC2=O)CC1 [compound 9, 5-[4-(2-Carboxyethyl)piperazin-1-yl]-5-[4-(4-iodophenoxy)phenyl]pyrimidine-2,4,6-trione] |  | 29 ± 2 |  | 1.3 ± 0.2 | 236 to 242 °C (dec.) | 1170 ± 80 | 362 ± 24 | 49 | approximately 400 fold |
